Results taken from patent US4761404A, “Phospholipid analogs useful as PAF synthesis inhibitors” (Merck & Co., Inc., priority 1985, dated 1988).

Assays:
[1] = system: PAF biosynthesis; assay: PAF biosynthesis inhibition (rat spleen microsomes, [3H]acetyl CoA / lyso PAF); format: biochemical; details: 10 μM, incubation 5-8 minutes
Experimental: (1) Product PAF was estimated after reaction by liquid scintillation counting of the dried chloroform phase.
(2) [^3 H]Acetyl Co A was used in place of [^14 C],
(3) Incubation (i.e., reaction) times were generally within the range of 5-8 minutes.
(4) Concentrations used were in 1 ml of reaction mixture as follows:
Rat spleen microisomes: 50-150 μg

[2] = system: rabbit platlets; assay: aggregation of rabbit platelets (AC50); format: cell-based; details: Oryctolagus cuniculus, Platelet, 50% aggregation, only compounds structurally similar to PAF, read-out: AC50 (concentration of the test compound to obtain 50% aggregation of rabbit platlets)
Excerpt: The results obtained and the compounds tested are set forth in Table I below wherein "% I" represents percent inhibition and "AC50 " represents the concentration of the test compound to obtain 50% aggregation of rabbit platlets. The AC50 results were obtained only for those compounds which are structurally similar to PAF.

Row | Molecule | % I (percent inhibition), PAF biosynthesis inhibition [1] | AC50 [2]
1 | 3-Hexadecylsulfonaminopropyl-1-phosphorylcholine [Example 51] | 34% | –
2 | 3-Octadecylaminocarbonylaminopropyl-1-phosphorylcholine [Example 52] | 74% | –
3 | 3-Tetradecycloxycarbonylaminopropyl-2-phosphorylcholine [Example 50] | 65% | –
4 | CCCCCCCCCCCCCCCCOCC(C)(O)COP(=O)([O-])OCC[N+](C)(C)C (stereo not drawn) [Example 12, 3-O-Hexadecyl-2-methylglycero-1-phosphorylcholine] | – | > 100 µM
5 | C=C(COCCCCCCCCCCCCCCCC)COP(=O)([O-])OCC[N+](C)(C)C [Example 13, 2-Hexadecyloxymethyl-2-propene-1-phosphorylcholine] | 38% | 1.3 µM
6 | CCCCCCCCCCCCCCCCOCC(COC(C)=O)COP(=O)([O-])OCC[N+](C)(C)C (stereo not drawn) [Example 14, 2-Acetoxymethyl-2-deoxy-3-O-hexadecylglycero-1-phosphocholine] | 36% | 0.34 µM
7 | CCCCCCCCCCCCCCCCOCC(O)(COC(C)=O)COP(=O)([O-])OCC[N+](C)(C)C (stereo not drawn) [Example 15, 2-Acetoxymethyl-3-O-hexadecylglycero-1-phosphocholine] | 71% | 0.07 µM
8 | CCCCCCCCCCCCCCCCOCC(CF)COP(=O)([O-])OCC[N+](C)(C)C (stereo not drawn) [Example 16, 2-Deoxy-2-fluoromethyl-3-0-hexadecylglycero-1-phosphocholine] | 30% | 2.2 µM
9 | CCCCCCCCCCCCCCCCOCC(CO)COP(=O)([O-])OCC[N+](C)(C)C (stereo not drawn) [Example 17, 2-Hydroxymethyl-2-deoxy-3-O-hexadecylglycero-1-phosphocholine] | 20% | 24 µM
10 | CCCCCCCCCCCCCCCCOCC(O)(CO)COP(=O)([O-])OCC[N+](C)(C)C (stereo not drawn) [Example 18, 2-Hydroxymethyl-3-O-hexadecylglycero-1-phosphocholine] | 82% | 38 µM
11 | Sodium 2-(2-N-hexadecanoylaminoethyl)-2'-(2 -methylcarbonylaminoethyl)phosphate [Example 46] | 90% | –
12 | Sodium 2-(2-N-hexadecanoylaminoethyl)-2'-(2-methylsulfinylethyl)phosphate [Example 53] | 71% | –
